Experimental data taken from patent publication US20090143279A1 (priority 2007, published 2009).
Where “and” joins values, the source holds several entries; their conditions need not be identical. Equal values may be shown once. Read-outs that look alike come from different tables or passages of the source.

System: cytochrome c
Type: cell-based, mouse
[1] = composite Z-score vs mock-treated (DMSO) wells, concentration of each compound in μM

cytochrome c, sequence (P62897 whole entry): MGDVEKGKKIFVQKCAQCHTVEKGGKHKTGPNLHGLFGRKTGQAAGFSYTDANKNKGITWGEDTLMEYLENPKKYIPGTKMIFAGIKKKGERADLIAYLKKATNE

## Cn1c(=O)c2c(ncn2C)n(C)c1=O [caffeine]
  cyt c (composite Z-score vs DMSO): 0.292

## COc1ccc(-c2cc(=O)c3c(OC)cc(O)cc3o2)cc1 [5,4′-dimethoxy-7-hydroxyflavone]
[1]
  cyt c: 0.173

## C[n+]1cccc(C(=O)[O-])c1 [trigonelline]
  cyt c (composite Z-score): −0.072

## COc1c2ccoc2c(OC)c2oc(=O)ccc12 [isopimpinellin]
  cyt c: 0.230

## CCCC1C(=O)N2C(N(C)C)=Nc3ccc(C)cc3N2C1=O (centres unmarked) [azapropazone]
  cyt c: 0.418

## CCN[C@@H]1C[C@H](N)[C@@H](O[C@H]2OC(CN)=CC[C@H]2N)[C@H](O)[C@H]1O[C@H]1OC[C@](C)(O)[C@H](NC)[C@H]1O [netilmicin]
Normalized score (composite Z-score vs DMSO mock-treated wells), compound concentration (μM)
  cyt c: 0.156

## C[N+](C)(C)CCO [choline]
  cyt c (composite Z-score vs DMSO): 0.713

## CC(C)=CCC[C@]1(C)C=Cc2c(O)c3c(c(CC=C(C)C)c2O1)O[C@]12C(=C[C@@H]4C[C@H]1C(C)(C)O[C@@]2(C/C=C(/C)C(=O)O)C4=O)C3=O [gambogic acid]
[1]
  cyt c: −5.596

## CC(C)c1cccc(C(C)C)c1O [propofol]
  cyt c (composite Z-score vs DMSO): 0.242

## CN1CCC(=C2c3ccccc3C=Cc3ccccc32)CC1 [cyproheptadine]
  cyt c (composite Z-score): 0.064

## COC(=O)C1=C(C)NC(C)=C(C(=O)OC(C)C)C1c1cccc2nonc12 (centres unmarked) [isradipine]
[1]
  cyt c: 0.236

## NCCCC[C@H](N[C@@H](CCc1ccccc1)C(=O)O)C(=O)N1CCC[C@H]1C(=O)O [lisinopril]
  cyt c (composite Z-score vs DMSO): 0.265 and 0.412

## CN(CCOc1ccc(CC2SC(=O)NC2=O)cc1)c1ccccn1 (centres unmarked) [rosiglitazone]
  cyt c: −0.121

## Cc1nc2n(c(=O)c1CCN1CCC(c3noc4cc(F)ccc34)CC1)CCCC2 [risperidone]
  cyt c (composite Z-score vs DMSO): 0.243

## C=N[C@@H](C(=O)N[C@@H]1C(=O)N2[C@@H]1SC(C)(C)[C@@H]2C(=O)O)c1ccccc1 [metampicillin]
[1]
  cyt c: 0.821

## OC(Cn1cncn1)(Cn1cncn1)c1ccc(F)cc1F [fluconazole]
  cyt c (composite Z-score vs DMSO): 0.741

## Nc1c2c(nc3ccccc13)CCCC2 [tacrine]
  cyt c (composite Z-score vs DMSO): −0.250

## Oc1ccc2c3c1O[C@H]1[C@@H](O)CC[C@@]4(O)[C@@H](C2)N(CC2CCC2)CC[C@]314 [nalbuphine]
  cyt c: 0.276
  cyt c (composite Z-score vs DMSO): −0.613

## Clc1ccccc1CN1CCc2sccc2C1 [ticlopidine]
  cyt c (composite Z-score vs DMSO): −0.316

## Cc1cn([C@H]2C[C@H](N=[N+]=[N-])[C@@H](CO)O2)c(=O)[nH]c1=O [zidovudine]
  cyt c: 0.611
  cyt c (composite Z-score vs DMSO mock-treated wells): 0.637

## Cc1n[nH]c(=O)[nH]c1=O [6-azathymine]
  cyt c: 0.583

## CCCC(C)C1(CC)C(=O)NC(=S)NC1=O (centres unmarked) [thiopental]
  cyt c (composite Z-score vs DMSO): −0.299

## O=C(O)c1cn(-c2ccc(F)cc2)c2cc(N3CCNCC3)c(F)cc2c1=O [sarafloxacin]
[1]
  cyt c: 0.290

## CC(O)Cn1cnc2c1c(=O)n(C)c(=O)n2C (centres unmarked) [proxyphylline]
[1]
  cyt c: −0.574

## COc1c(O)cc2c(c1O)[C@@H]1O[C@H](CO)[C@@H](O)[C@H](O)[C@H]1OC2=O [bergenin]
[1]
  cyt c: 0.831

## NCCc1c[nH]cn1 [histamine]
  cyt c (composite Z-score vs DMSO): 0.016

## NS(=O)(=O)c1cc(C(=O)O)c(NCc2ccco2)cc1Cl [furosemide]
  cyt c (composite Z-score vs DMSO mock-treated wells): 0.234 and 0.342

## CC(=O)N1CCN(c2ccc(OCC3COC(Cn4ccnc4)(c4ccc(Cl)cc4Cl)O3)cc2)CC1 (centres unmarked) [ketoconazole]
  cyt c: 0.406
  cyt c (composite Z-score vs DMSO mock-treated wells): 0.109

## O=c1[nH]cnc2nc[nH]c12 [hypoxanthine]
  cyt c: 0.608

## COc1cc(C2Oc3cc([C@H]4Oc5cc(O)cc(O)c5C(=O)[C@@H]4O)ccc3OC2CO)ccc1O (some centres unmarked) [silybin]
  cyt c: 0.150

## O=C(OCc1ccccc1)c1ccccc1 [benzyl benzoate]
  cyt c (composite Z-score vs DMSO): 0.394

## CC1=C(/C=C/C(C)=C/C=C/C(C)=C/C=C/C=C(C)/C=C/C=C(C)/C=C/C2=C(C)CCCC2(C)C)C(C)(C)CCC1 [beta-carotene]
  cyt c: 0.027

## C[C@@H]1O[C@@H](OC[C@H]2O[C@@H](Oc3c(-c4ccc(OCCO)c(OCCO)c4)oc4cc(OCCO)cc(O)c4c3=O)[C@H](O)[C@@H](O)[C@@H]2O)[C@H](O)[C@H](O)[C@H]1O [troxerutin]
[1]
  cyt c: −0.673

## CN1[C@@H]2CC[C@H]1C[C@@H](OC(=O)[C@H](CO)c1ccccc1)C2 [hyoscyamine]
  cyt c: 0.319
  cyt c (composite Z-score vs DMSO mock-treated wells): 0.235

## CC[C@H]1OC(=O)[C@H](C)C(=O)[C@H](C)[C@@H](O[C@@H]2O[C@H](C)C[C@H](N(C)C)[C@H]2O)[C@](C)(OC)C[C@@H](C)C(=O)[C@H](C)[C@H]2N(CCCCn3cnc(-c4cccnc4)c3)C(=O)O[C@]12C [telithromycin]
[1]
  cyt c: −0.023

## O=C1C=C2C=C[C@@H]3C[C@@]2(O1)[C@H]1CCCCN31 [securinine]
[1]
  cyt c: −0.481

## CCc1cccc(CC)c1NC(=O)CN(CC(=O)O)CC(=O)O [etifenin]
[1]
  cyt c: 0.092

## Cn1c(=O)c2[nH]cnc2n(C)c1=O [aminophylline]
  cyt c (composite Z-score vs DMSO): 0.177

## CC(C)=CCC/C(C)=C/COC(=O)C=Cc1ccccc1 [geranyl cinnamate]
[1]
  cyt c: −0.107

## COc1c(O[C@@H]2O[C@H](CO)[C@@H](O)[C@H](O)[C@H]2O)cc2c(c1OC)-c1ccc(SC)c(=O)cc1[C@@H](NC(C)=O)CC2 [thiocolchicoside]
[1]
  cyt c: 0.108

## c1ccc(C2CN3CCSC3=N2)cc1 (centres unmarked) [tetramisole]
  cyt c: 0.209

## CC(C)NCC(O)c1ccc(NS(C)(=O)=O)cc1 (centres unmarked) [sotalol]
[1]
  cyt c: 0.501

## catechin hydrate [reference compound]
  cyt c: 1.085

## CCCCCCCC/C=C/CCCCCCCCOP(=O)([O-])OCC[N+](C)(C)C [elaidylphosphocholine]
[1]
  cyt c: −0.840

## C[C@H]1[C@H](C)CC[C@]2(C(=O)O)CC[C@]3(C)C(=CC[C@@H]4[C@@]5(C)C[C@@H](O)[C@H](O)[C@@](C)(CO)[C@@H]5[C@H](O)C[C@]43C)[C@H]12 [madecassic acid]
[1]
  cyt c: 0.241

## CC[C@H]1OC(=O)[C@H](C)[C@@H](O[C@H]2C[C@@](C)(OC)[C@@H](O)[C@H](C)O2)[C@H](C)[C@@H](O[C@@H]2O[C@H](C)C[C@H](N(C)C)[C@H]2O)[C@](C)(O)C[C@@H](C)[C@@H]2N[C@@H](COCCOC)O[C@H]([C@H]2C)[C@]1(C)O [dirithromycin]
[1]
  cyt c: 0.356

## NCCCCCC(=O)O [6-aminocaproic acid]
  cyt c (composite Z-score vs DMSO mock-treated wells): −0.680

## COc1cc2c3cc1Oc1cc(ccc1O)C[C@@H]1c4c(cc(OC)c(O)c4Oc4ccc(cc4)C[C@@H]3N(C)CC2)CC[N+]1(C)C [tubocurarine]
[1]
  cyt c: 1.117

## COc1ccc(CC2c3cc(OC)c(OC)cc3CC[N+]2(C)CCC(=O)OCCCCCOC(=O)CC[N+]2(C)CCc3cc(OC)c(OC)cc3C2Cc2ccc(OC)c(OC)c2)cc1OC (centres unmarked) [atracurium]
[1]
  cyt c: 1.176

## CCOC(=O)[C@H](CCc1ccccc1)N[C@@H](C)C(=O)N1[C@H](C(=O)O)C[C@H]2CCCC[C@@H]21 [trandolapril]
  cyt c: 0.039

## Cc1c(C(N)=O)cc([N+](=O)[O-])cc1[N+](=O)[O-] [dinitolmide]
  cyt c (composite Z-score vs DMSO): 0.218

## O=C(O)COCCN1CCN(C(c2ccccc2)c2ccc(Cl)cc2)CC1 (centres unmarked) [cetirizine]
  cyt c: 0.507
